# Test results published in US20150164895A1, “DETERMINING SENSITIVITY OF CELLS TO B-RAF INHIBITOR TREATMENT BY DETECTING KRAS MUTATION AND RTK EXPRESSION LEVELS” (GENENTECH, INC., priority 2009, published 2015).
# Values joined by “and” are separate entries in the source; they are usually repeats but may differ in a detail not shown here. Identical values can stand only once.
# Tested on: lung tumor xenografts
# Test: Experiment H327: growth in lung tumor xenografts after dosing with B-RAF inhibitor
# Format: in vivo, mice
# Conditions: H327-2, LXFA 1041/9N4, 100 mg/kg/day po Days 0-20; for Absolute body weight, Median / Relative body weight, Median: group median n 10; for Absolute tumor volume: (a*b*b)/2, Median / Relative tumor volume, Median: group median n 20; for Relative tumor volume: individual tumor
# Text: FIGS. 10-18 depict growth in lung tumor xenografts after dosing with GDC-0879.
# The data are shown below, and in FIGS. 10-14 for Experiment H331 and FIGS. 15-18 for Experiment H327.
# [1] = study day 3, individual animal, listed as G-026887
# [2] = study day 7, individual animal, listed as G-026887
# [3] = study day 10, individual animal, listed as G-026887
# [4] = study day 14, individual animal, listed as G-026887
smiles,measurement,setting,value
"OCCn1cc(-c2ccc3c(c2)CC/C3=N\O)c(-c2ccncc2)n1 [GDC-0879, 2-{4-[(1E)-1-(hydroxyimino)-2,3-dihydro-1H-inden-5-yl]-3-(pyridine-4-yl)-1H-pyrazol-1-yl}ethan-1-ol]",Survival time,"individual animal, listed as G-026887",>20 days (14×) and >21 days (6×)
same,"Absolute body weight, Median",study day 0,25.1 g
same,"Relative body weight, Median",study day 0,100.0%
same,"Absolute tumor volume: (a*b*b)/2, Median",study day 0,88.5 mm3
same,"Relative tumor volume, Median",study day 0,100.0%
same,Relative body weight,"study day 0, individual animal",100.0%
same,Absolute body weight,"study day 0, individual animal, listed as G-026887",25.4 g and 28.6 g and 24.5 g (2×) and 24.0 g and 25.1 g and 29.8 g and 31.5 g and 25.0 g and 23.6 g
same,Relative tumor volume,study day 0,100.0%
same,"Absolute body weight, Median",study day 3,25.3 g
same,"Relative body weight, Median",study day 3,99.2%
same,"Absolute tumor volume: (a*b*b)/2, Median",study day 3,139.8 mm3
same,"Relative tumor volume, Median",study day 3,165.4%
same,Absolute body weight,[1],25.6 g and 29.4 g and 24.6 g and 23.8 g and 23.6 g and 25.1 g and 29.3 g and 30.4 g and 25.4 g and 22.9 g
same,Relative body weight,[1],100.8% and 102.8% and 100.4% and 97.1% and 98.3% (2×) and 100.0% and 96.5% and 101.6% and 97.0%
same,Relative tumor volume,"study day 3, listed as G-026887",193.9% and 208.9% and 154.7% and 187.7% and 202.6% and 157.6% and 110.0% and 160.2% and 138.1% and 194.2% and 138.9% and 172.0% and 178.9% and 185.0% and 157.3%
same,"Absolute body weight, Median",study day 7,25.7 g
same,"Relative body weight, Median",study day 7,101.4%
same,"Absolute tumor volume: (a*b*b)/2, Median",study day 7,228.0 mm3
same,"Relative tumor volume, Median",study day 7,258.8%
same,Absolute body weight,[2],25.9 g and 30.9 g and 25.2 g and 24.3 g and 24.4 g and 25.4 g and 29.8 g and 30.5 g and 26.3 g and 22.6 g
same,Relative body weight,[2],102.0% and 108.0% and 102.9% and 99.2% and 101.7% and 101.2% and 100.0% and 96.8% and 105.2% and 95.8%
same,Relative tumor volume,"study day 7, listed as G-026887",452.1% and 329.8% and 300.6% and 260.9% and 376.4% and 256.7% and 340.1% and 324.4% and 232.6% and 248.9% and 223.2% and 293.8% and 281.8% and 209.2%
same,"Absolute body weight, Median",study day 10,25.5 g
same,"Relative body weight, Median",study day 10,100.5%
same,"Absolute tumor volume: (a*b*b)/2, Median",study day 10,305.5 mm3
same,"Relative tumor volume, Median",study day 10,388.4%
same,Absolute body weight,[3],25.5 g (2×) and 30.4 g and 24.9 g and 24.3 g and 23.8 g and 30.0 g and 30.6 g and 26.1 g and 22.0 g
same,Relative body weight,[3],100.4% and 106.3% and 101.6% (2×) and 99.2% (2×) and 100.7% and 97.1% and 104.4% and 93.2%
same,Relative tumor volume,"study day 10, listed as G-026887",586.9% and 487.4% and 508.8% and 376.4% and 414.0% and 411.7% and 522.2% and 562.3% and 323.9% and 342.2% and 332.9% and 385.0% and 391.8% and 264.6%
same,"Absolute body weight, Median",study day 14,25.6 g
same,"Relative body weight, Median",study day 14,101.4%
same,"Absolute tumor volume: (a*b*b)/2, Median",study day 14,541.3 mm3
same,"Relative tumor volume, Median",study day 14,605.0%
same,Absolute body weight,[4],25.1 g and 30.7 g and 24.8 g and 24.6 g and 24.4 g and 26.1 g and 31.2 g and 30.4 g and 26.8 g and 22.7 g
same,Relative body weight,[4],98.8% and 107.3% and 101.2% and 100.4% and 101.7% and 104.0% and 104.7% and 96.5% and 107.2% and 96.2%
same,Relative tumor volume,"study day 14, listed as G-026887",964.1% and 811.9% and 593.5% and 515.7% and 743.1% and 697.3% and 1076.6% and 1151.3% and 503.3% and 616.5% and 626.8% and 523.7% and 733.4% and 523.3%
same,"Absolute body weight, Median",study day 17,25.7 g
